Like-named read-outs stand apart in the source and are kept apart here.

The IC50 is the concentration needed to halve the response being measured. High values mean weaker potency in that assay, low ones greater potency in that assay. One may read the Papp as the rate of passage across a membrane or cell layer, normalised by area and donor concentration. Higher therefore signals fast passage.

Data set [1] concerns NUGC-3, gastric cancer cell line with a TP53 Y220C mutation. Kind of data set: MTT cell proliferation assay. Format: cell-based, human. Conditions: for IC50: Homo sapiens, NUGC-3, 120 h, NUGC-3 cells, five days incubation. On the procedure: We also evaluated the effects of these compounds on the growth and viability of four cancer cell lines in vitro. Two of the cell lines (NUGC-3, gastric cancer cell line with a TP53 Y220C mutation and T3M-4, pancreatic carcinoma cell line) have the TP53 Y220C mutation leading to the p53 Y220C mutant protein; SJSA-1 is a p53 WT cell line, and NUGC-3-KO is an isogenic p53 knockout cell line.[11] After incubating the cells with the compounds for five days, cell viability was measured using the 3-(4,5-dimethylthiazol-2-yl)-2,5-diphenyltetrazolium bromide (MTT) assay.
C = (Ac − B a)/(Dc − B d),
Prism (GraphPad) or XLfit software (IDBS).
Cells were seeded at an appropriate
Compounds were tested at eight concentrations with 2-fold serial dilutions. […]
with a reference wavelength of 650 nm. […]
untreated cells (control). […]
(Tetrazolium assays rely on reduction of a dye to a coloured formazan, in cell work by metabolically active cells.)

A short description of data set [2]: Pharmacokinetic study in mice. Conditions: 50 mg/kg.
Description: (§1) Pharmacokinetic parameters were evaluated in female CD-1 mice. Animals received an oral gavage dose of 50 mg/kg of the test article. The test article was formulated in a solution containing 2% hydroxypropyl
(§2) cellulose and 0.5% Tween 80 in water. Blood samples were collected at 0.5, 1, 2, 4, 7, and 24 h post dose.
(§3) Blood samples were processed into plasma, and the concentrations of the test article were determined by
(§4) LC-MS/MS. P harmacokinetic parameters were calculated using the Phoenix WinNonlin 6.3 program,
(§5) employing a non- compartmental model 200.
The target of data set [3] is T1, recombinant His-tag Y220C p53 DNA binding domain (Homo sapiens, UniProt P04637, Y220C).
T1 construct: Y220C p53 DBD protein (amino acids #94-312); made in house
Nature of the data set: TR-FRET DNA binding assay (SC150). Format: biochemical. The text has this: At the outset of our hit generation campaign, several small molecules targeting the p53 Y220C mutant protein were identified. Two notable examples, supported by crystallographic data, were the compounds from the carbazole series[6] (PhiKan83) and the iodophenol series[7] (PK1596) (Figure 1). To assess the in vitro potency of the p53 Y220C reactivators, a time-resolved fluorescence resonance energy transfer (FRET) assay was developed. In this assay, recombinant His-tag Y220C p53 DNA binding domain binds to biotin-labeled consensus DNA, and the FRET signal is measured between the allophycocyanin-conjugated anti-His-tag antibody and europium-conjugated streptavidin. The […] concentration required to increase DNA binding by 1.5-fold (SC150) could then be determined. The carbazole compound (PhiKan83) enhanced DNA binding with an SC150 of 37.2 μM. […]
Time-Resolved Fluorescence Resonance Energy Transfer (TR-FRET) Assay
DNA binding activity was measured by the TR-FRET assay. In this assay, the recombinant His6-tag Y220C p53 DNA binding domain (DBD) protein binds to biotin labeled consensus DNA. The binding of recombinant His6-tag Y220C p53 DBD protein and biotin-labeled consensus DNA is detected by the fluorescence resonance energy transfer (FRET) between allophycocyanin (APC) conjugated anti-His6 tag antibody and Europium-(Eu) conjugated Streptavidin. Test compounds, at 2 mM stock in DMSO, were diluted t hr e e-f ol d in serial dilutions in DMSO and 1.2 µL per well were added into 384-well polypropylene black plates (NUNC). Subsequently, 30 µL per well of 181 nM recombinant His6-tag Y220C p53 DBD protein (amino acids #94-312) and 9.1 nM of APC conjugated anti-His6 tag antibody (Columbia Biosciences) in ice-cold Assay Buffer 1 (50 mM Tris-HCl, pH 7.4, 75 mM KCl, 0.75 mM DTT and 0.2 mg/mL bovine serum albumin [BSA]) was added. As a background control, 30 µL of Assay Buffer 1 containing 9.1 nM of APC anti-His6 antibody (no Y220C protein) was also added into a second set of serial diluted compound plates. The samples were centrifuged at 1,200 rpm (Eppendorf 5810R plate centrifuge) for 1 minute and incubated at room temperature (20 °C) for 15 min. The samples were then incubated at 27 °C in a water bath for 48 min. Afterwards, 5 µL per well of 145 nM biotin labeled oligonucleotide from a consensus DNA p53 response element (a DNA duplex with 5’ to 3’sequence of […]
and biotin attached to the 3’ end of the complementary DNA) and 8.8 nM Eu-conjugated streptavidin (Columbia Biosciences) in Assay Buffer 2 (50 mM Tris-HCl, pH 7.4, 75 mM KCl and 0.2 mg/mL BSA) were added. The samples were centrifuged at 1,200 rpm for 1 min and incubated at room temperature (20 °C) for 20 min. Assay signals were monitored by reading excitation at 340 nm, and emission fluorescence at 615 and 665 nm, on an Envision reader (Perkin El mer). Normalized TR -FRET assay signal (Rn) was calculated by the formula:
Rn = [(A − B a − C × (D − Bd))/(D − Bd)] × (Dc − B d),
C = (Ac − B a)/(Dc − B d), […]
For orientation: Time-resolved FRET reads energy transfer from a long-lived donor to a nearby acceptor.

In data set [4] the test system is NUGC-3 tumor xenografts. Nature of the data set: NUGC-3 tumor xenograft efficacy in nude mice. Format: in vivo, mouse. As to conditions: 150 mg/kg, same xenograft model. As to the method: Compound 26 (rezatapopt; PC14586), which had the most favorable plasma exposure, was evaluated for its ability to inhibit the growth of NUGC-3 tumor xenografts in nude mice.
Study of C ompound 26 in NUGC-3 Xenograft
Female Balb/c nude mice, aged 4 to 6 weeks, were obtained from Envigo (Madison, WI). All mice were housed at the PMV Pharmaceuticals Vivarium. Mouse care and experimental procedures adhered to institutional guidelines for ethical use, with all research protocols approved by the Institutional Animal Care and Use Committees of PMV Pharmaceuticals. The mice were maintained at ambient temperatures of 68–72 °F, with 30–70% humidity, and a 12 -hour dark/light cycle.
NUGC-3 cells were resuspended at a concentration of 1×10^7 viable cells/mL in a 50:50 mixture of phosphate-buffered saline and Matrigel Matrix (Corning). Subsequently, 100 µL of the suspension was injected subcutaneously into the dorsal flankof the mice . Mice were selected and randomized into treatment groups based on tumor size.

Data set [5] in a line: Caco-2 permeability. Format: in vitro ADME. Conditions: human. The text has this:
Significant efforts were dedicated to the optimization of compound 13, and a successful approach involved fluorine substitution of the piperidine ring. Fluorine substitution often plays a crucial role in medicinal chemistry, exerting a substantial impact on the characteristics of drug molecules.[12],[13] Incorporation of fluorine atoms can yield diverse effects and improvements in a drug’s pharmacological properties. In the case of the piperidine ring in compound 13, several key effects of fluorine substitution were predicted, including enhanced hydrogen bonding with Threonine-150, increased conformational rigidity of the piperidine ring, and reduced basicity. […] We postulated that the fluorine atom on the piperidine ring of compound 22, which preferentially stays in the axial position, can form a better hydrogen bond with the N-H group of Threonine-150. The enhanced cellular potency of compound 22 can be attributed to the enhanced permeability. […] Recently, insights into the conformational behavior of cis-fluorinated piperidines were reported.[14]

Data set [6] can be described thus: Half-life in human liver microsomes. Format: in vitro ADME. As to conditions: read-out: half-life (T1/2). The source says:
However, there was a significant improvement in potency with fluorine substitution at the hydrophobic anchor (R3 = CF3, compound 7). […] The trifluoromethyl group remained the best anchor throughout the hit expansion and drug discovery campaign. Assessment of the 4-substituted indole compounds (R1 = H, compounds 8–14) led to a breakthrough regarding the potency of the compounds. Our molecular modeling predicted that the side chain of Threonine-150 within the p53 Y220C protein would form a hydrogen bond with the ligand. This interaction helped to orient the ligand in the binding pocket of the p53 Y220C mutant protein and enhance other interactions such as hydrophobic and van der Waals interactions. […] With the nitrogen atom in place, various polar groups were assessed, and it was determined that basic nitrogen, such as that in the piperidine ring, was preferred for maintaining the potency of the compound (R2 = S5). Many substituents can be tolerated for the aromatic ring occupying the subsite.

The conditions of data set [7]: female, CD-1, mouse, in vivo, po, 50 mg/kg.
Description: as §1, §2, §3, §4, §5
The mark [8] stands for this setting: Table 3, concentration required to increase DNA binding by 1.5-fold.
Where [9] appears, read: Table 1, concentration required to increase DNA binding by 1.5-fold.
Where [10] appears, read: Table 2, concentration required to increase DNA binding by 1.5-fold.

The compound `COc1cc(C(=O)O)ccc1NCC#Cc1cc2c(N[C@@H]3CCN(C)C[C@@H]3F)cccc2n1CC(F)(F)F` [Compound 24, 4-((3-(4-(((3S,4R)-3-fluoro-1-methylpiperidin-4-yl)amino)-1-(2,2,2-trifluoroethyl)-1H-indol-2-yl)prop-2-yn-1-yl)amino)-3-methoxybenzoic acid] returned an IC50 in data set [1] (Table 3) of 0.99 µM. Besides, in data set [2] (Table 3, PO), the “Mouse PK Exposure AUC0-last” value is listed as 57882 ng·h/mL and the “Mouse PK Exposure Cmax” value was 27700 ng/mL. Moreover, the SC150 in data set [3] (setting [8]) is on record as 11 nM. Further, the tumor growth inhibition in data set [4] was found to be 54%.

In data set [1] (Table 3), `COc1cc(C(=O)NCC(O)CO)ccc1NCC#Cc1cc2c(N[C@@H]3CCN(C)C[C@@H]3F)cccc2n1CC(F)(F)F` (stereo partly drawn) [Compound 29, N-(2,3-dihydroxypropyl)-4-[3-[4-[[(3S,4R)-3-fluoro-1-methyl-4-piperidyl]amino]-1-(2,2,2-trifluoroethyl)indol-2-yl]prop-2-ynylamino]-3-methoxy-benzamide] returned an IC50 of 0.574 µM. In data set [2] (Table 3, PO), the “Mouse PK Exposure AUC0-last” value is listed as 117 ng·h/mL and the “Mouse PK Exposure Cmax” value came to 54 ng/mL. Also, the SC150 in data set [3] (setting [8]) is reported as 8 nM.

The compound `COc1cc(S(C)(=O)=O)ccc1NCC#Cc1cc2c(NC3CCN(C)CC3)cccc2n1CC(F)(F)F` [Compound 13] returned an IC50 in data set [1] (Table 2) of 2.1 µM. The “Mouse PK Exposure AUC0-last” value in data set [2] (Table 2, PO) is given as 3545 ng·h/mL. Besides, the “Mouse PK Exposure Cmax” value in data set [2] (Table 2, PO) is recorded as 903 ng/mL. Further, the SC150 in data set [3] (setting [9]) and in data set [3] (setting [10]) was 23 nM throughout. In data set [5], the Papp was found to be 11.8 ×10⁻⁶ cm/s.

For `CCn1c(C#CCNc2ccccc2)cc2cc(CNC)ccc21` [Compound 1, N-[3-[1-ethyl-5-(methylaminomethyl)indol-2-yl]prop-2-ynyl]aniline], in data set [6], the half-life came to 4 min. Further, the SC150 in data set [3] (Figure 1, enhancement of DNA binding) came to 13600 nM; in data set [3] (setting [9]), 13600 nM.

As to `COc1cc(S(C)(=O)=O)ccc1NCC#Cc1cc2c(N[C@@H]3CCN(C)C[C@@H]3F)cccc2n1CC(F)(F)F` [Compound 22, N-[(3S,4R)-3-fluoro-1-methyl-4-piperidyl]-2-[3-(2-methoxy-4-methylsulfonyl-anilino)prop-1-ynyl]-1-(2,2,2-trifluoroethyl)indol-4-amine], the IC50 turned out to be 0.3 µM in data set [1] (Table 2) and 0.325 µM in data set [1] (Table 3). The “fold increased potency compared with compound 13” value in data set [1] (MTT assay, vs compound 13) is on record as “approximately 7 fold”. Also, the “Mouse PK Exposure AUC0-last” value in data set [2] (Table 2, PO) is 12567 ng·h/mL. Also, in data set [2] (Table 2, PO), the “Mouse PK Exposure Cmax” value came out at 2103 ng/mL. Moreover, in data set [3] (setting [10]), the SC150 is 8 nM. This compound also gave a Papp in data set [5] of 19.9 ×10⁻⁶ cm/s.

In turn, `COc1cc(S(C)(=O)=O)ccc1NCC#Cc1cc2c(N[C@H]3CCN(C)C[C@H]3F)cccc2n1CC(F)(F)F` [Compound 21, N-[(3R,4S)-3-fluoro-1-methyl-4-piperidyl]-2-[3-(2-methoxy-4-methylsulfonyl-anilino)prop-1-ynyl]-1-(2,2,2-trifluoroethyl)indol-4-amine] had an IC50 in data set [1] (Table 2) of 2.3 µM. Further, in data set [2] (Table 2, PO), the “Mouse PK Exposure AUC0-last” value amounted to 23233 ng·h/mL and the “Mouse PK Exposure Cmax” value came out at 2353 ng/mL. The SC150 in data set [3] (setting [10]) was determined as 20 nM.

Take `COc1cc(C(N)=O)ccc1NCC#Cc1cc2c(N[C@@H]3CCN(C)C[C@@H]3F)cccc2n1CC(F)(F)F` [Compound 25, 4-[3-[4-[[(3S,4R)-3-fluoro-1-methyl-4-piperidyl]amino]-1-(2,2,2-trifluoroethyl)indol-2-yl]prop-2-ynyl-amino]-3-methoxy-benzamide]: the midpoint of inhibition in data set [1] (Table 3), the IC50, lay at 0.446 µM. Further, in data set [2] (Table 3, PO), the “Mouse PK Exposure AUC0-last” value stood at 39774 ng·h/mL and the “Mouse PK Exposure Cmax” value was 4473 ng/mL. In addition, the SC150 in data set [3] (setting [8]) amounted to 8 nM.

In data set [1] (Table 3), `COc1cc(C(=O)N2CC3(COC3)C2)ccc1NCC#Cc1cc2c(N[C@@H]3CCN(C)C[C@@H]3F)cccc2n1CC(F)(F)F` [Compound 28, [4-[3-[4-[[(3S,4R)-3-fluoro-1-methyl-4-piperidyl]amino]-1-(2,2,2-trifluoroethyl)indol-2-yl]prop-2-ynyl-amino]-3-methoxy-phenyl]-(2-oxa-6-azaspiro[3.3]heptan-6-yl)methanone] gave an IC50 of 0.457 µM. In data set [7], the “Mouse PK Exposure AUC0-last” value is 15328 ng·h/mL and the “Mouse PK Exposure Cmax” value came to 2747 ng/mL. Besides, in data set [3] (setting [8]), the SC150 amounted to 7 nM.

`COc1cc(C(=O)NC2CCOCC2)ccc1NCC#Cc1cc2c(N[C@@H]3CCN(C)C[C@@H]3F)cccc2n1CC(F)(F)F` [Compound 27, 4-((3-(4-(((3S,4R)-3-fluoro-1-methylpiperidin-4-yl)amino)-1-(2,2,2-trifluoroethyl)-1H-indol-2-yl)prop-2-yn-1-yl)amino)-3-methoxy-N-(tetrahydro-2H-pyran-4-yl)benzamide] came in with an IC50 in data set [1] (Table 3) of 0.531 µM. Further, in data set [2] (Table 3, PO), the “Mouse PK Exposure AUC0-last” value was found to be 3261 ng·h/mL and the “Mouse PK Exposure Cmax” value came to 807 ng/mL. For the same compound, the SC150 in data set [3] (setting [8]) turned out to be 7 nM.

(Values after article PMC11726359, “Discovery of Rezatapopt (PC14586), a First-in-Class, Small-Molecule Reactivator of p53 Y220C Mutant in Development” (ACS Medicinal Chemistry Letters, 2024).)
